# Test results published in PMC11374660, “The novel family of Warbicin® compounds inhibits glucose uptake both in yeast and human cells and restrains cancer cell proliferation” (Frontiers in Oncology, 2024).
# Like-named read-outs stand apart in the source and are kept apart here.
# Experiments:
# Format in all cases: cell-based, S. cerevisiae
# [1] = tested on: glucose uptake by wild type yeast cells; experiment: Zero-trans uptake of radioactive glucose in wild type yeast cells; conditions: for IC50: radioactive glucose, 10 s, read-out: IC50 for inhibition of 2.5 mM glucose uptake
# Experimental: (§1) Zero-trans uptake of radioactively labeled [U-^14C]glucose, [U-^14C]fructose or [U-^14C]galactose by S. cerevisiae cells was determined in accordance with previous studies ([45], [75]). Cells were grown on different carbon sources depending on the experiment. For measuring glucose uptake activity in the tps1Δ and tps1Δ hxtΔ strains, cells were grown on YP medium containing 325 mM glycerol (measurement of 10 s). Typically, for compound characterization and kinetic studies in wild type and tps1Δ strains, cells were (pre)grown on Complete Synthetic medium supplemented with 110 mM galactose (measurement of 10 s). In the experiments on the influence of hexokinase activity on the sugar uptake rate, the measurement duration was shortened to 5 s and cells were always grown on YP medium containing 325 mM glycerol and 430 mM ethanol. After harvesting, cells were washed twice with ice-cold 25 mM MES-buffer pH 6, and resuspended in their respective medium without sugar to a final concentration of 45 mg (wet weight)/mL. The amount of added tracer was estimated to give a response close to at least 1000 counts per min in order to adequately counter background noise. Cells were first preincubated for 10 min at 30°C with the compound to acclimate the cells to the temperature and to allow adequate interaction with the compound prior to uptake. Next, hexose sugar was mixed with the cell suspension, which was then incubated at 30°C for 5 or 10 s, depending on the experiment, after which the cells were rapidly filtered over a glass microfiber filter (Whatman GF/C) and washed three times with ice-cold dH2O. The loaded filter was transferred to a scintillation vial containing 3 mL liquid scintillation cocktail (Ultima-Flo M, Perkin Elmer) and counted using the Hidex 300 SL. Three blank measurements per strain were typically included to account for background signal, for which the cells were first quenched before adding the radioactive label.
# [2] = tested on: yeast tps1Δ cells; experiment: Glu6P and Fru1,6bisP accumulation in tps1Δ yeast cells after glucose addition; conditions: compound added at -10 min
# Experimental: For measuring metabolite levels, yeast cells were typically grown in Complete Synthetic medium. […] However, when comparing the effect of Warbicin ® compounds on metabolite profiles of wild type and tps1Δ strains, cells were grown on 110 mM galactose. When grown to exponential phase, cells were harvested by centrifugation and washed twice with ice-cold 25 mM 2-(N-Morpholino)ethanesulfonic acid (MES) buffer, pH 6. Cells were suspended in Complete Synthetic medium without sugar at a concentration of 75 mg (wet weight)/mL followed by a temperature equilibration at 30°C in a shaking water bath for 30 min. Depending on the experiment, a final concentration of 2.5 mM, 7.5 mM or 10 mM glucose was added to the cell suspension. Compounds were added 10 min prior to glucose addition. […]
# Through endpoint measurement of the absorbance of NADH or NADPH at 340 nm, metabolite concentrations in the yeast cells were calculated by applying Lambert’s Law. Different metabolites were measured through the use of coupled enzymatic reactions. […] Depending on the measured metabolite, different co-factors and auxiliary enzymes were added. For measuring glucose-6-phosphate, 1.07 mM NADP^+ was added to the assay buffer after which the baseline absorbance was measured. […] After stabilization of the OD340 spectra, ATP concentrations were measured by additionally adding 10 mM MgCl2 and 0.5 mM glucose to the assay buffer. […]
# [3] = tested on: HXK2 hxk1Δ glk1Δ yeast cells; experiment: Sugar uptake in HXK2 hxk1Δ glk1Δ yeast cells
# Experimental: as §1, with “Cells were first preincubated for 10 min at 30°C with the compound to acclimate the cells to the temperature and to allow adequate interaction with the compound prior to uptake. Next, hexose sugar was mixed with the cell suspension, which was then incubated at 30°C for 5 or 10 s, depending on the experiment, after which the cells were rapidly filtered over a glass microfiber filter (Whatman GF/C) and washed three times with ice-cold dH2O.” left out, “Three blank measurements per strain were typically included to account for background signal, for which the cells were first quenched before adding the radioactive label.” left out
compound,measurement,setting,value
Cc1nc(Sc2nnc3n2CCCCC3)c2c(-c3cccs3)csc2n1 [WBC-A],type of inhibition of glucose uptake (Lineweaver-Burk),[1],mixed type of inhibition
same,IC50,[1]; Saccharomyces cerevisiae,17.1 µM
same,IC50,[1],19 µM
same,Ki,[1]; read-out: Ki (Dixon plot) for glucose uptake,9.04 µM
same,"hyperaccumulation of Glu6P and Fru1,6bisP after addition of 2.5 mM glucose",[2],"concentration-dependent gradual drop in Glu6P and a more precipitous drop in Fru1,6bisP"
same,inhibition at 50 µM,"[3]; Saccharomyces cerevisiae, read-out: inhibition of fructose transport",> 75%
same,1 mM glucose uptake rate,[3]; strain expressing Hxk2,strong decrease in glucose uptake rate
